# Columns and labels:
# [1] = test system: neuropathic pain induced by spinal nerve ligation among rats; test: Paw pressure test (Randall & Selitto): mechanical hyperalgesia, spinal nerve ligation model; assay type: in vivo, rat
# Experimental: (§1) The effects of the prolonged and preventive administration of memantine were first of all studied among rats. The model used was that of the ligation of the spinal nerve L5 (herein after called SNL for spinal nerve ligation) among rats. The emergence of neuropathic pain is assessed according to the following criteria: • the behavior of the rat following the spinal nerve ligation (SNL), • cognition, and • molecular events, including the expression of phosphorylated tyrosine 1472 of the NR2B sub-unit of the NMDA receptor at the spinal level.
# (§2) The study was based on the comparison of the two main groups of animals. The first group was a control group. The rats of the control group, designated as “Sham” in the graphs, underwent no operation. They are used to assess the role of the injected substances on the individual, without there being any emergence of neuropathic pain.
# (§3) Two sub-groups were set up in this group: • one sub-group treated with the vehicle which is a saline solution of NaCl 0.9% by mass, in a dose of 1 mL/kg/rat/day, by intraperitoneal injection; and • one sub-group treated with memantine in a dose of 20 mg/kg/rat/day, by intraperitoneal injection.
# (§4) The second group of animals comprises rats having to undergo to spinal nerve ligation and therefore likely to develop neuropathic pain. This group is referred to in the graphs by the term SNL. As in the control group, this group is divided into two sub-groups: • one sub-group treated with the vehicle, which is a saline solution of NaCl 0.9% by mass, in a dose of 1 mL/kg/rat/day, by intraperitoneal injection; and • one sub-group treated by memantine in a dose of 20 mg/kg/rat/day, by intraperitoneal injection. […]
# (§5) 7. Seven to 14 days after the surgery, the neuropathic, hyperalgesic or allodynic rats are selected according to their response to nociceptive and non-nociceptive stimulation assessed through appropriate tests (see paragraph 6.1.2). […]
# [2] = test system: neuropathic pain induced by spinal nerve ligation among rats; test: Von Frey test: mechanical allodynia, spinal nerve ligation model; assay type: in vivo; conditions: 20 mg/kg/rat/day i.p.
# Experimental: as §1, §2, §3, §4, §5
# [3] = test system: neuropathic pain induced by spinal nerve ligation among rats; test: Y-Maze test: spatial memory, spinal nerve ligation model; assay type: in vivo, rat
# Experimental: as §1, §2
# Two sub-groups were set up in this group: • one sub-group treated with the vehicle which is a saline solution of NaCl 0.9% by mass, in a dose of 1 mL/kg/rat/day, by intraperitoneal injection; and • one sub-group treated with memantine in a dose of 20 mg/kg/rat/day, by intraperitoneal injection. […]
# The rat is placed in the middle of a chamber with three arms, each 40 cm long and 4 cm wide. The rat moves around freely in the different arms for five minutes and the number of entries into each of the arms is counted up. […]
smiles,measurement,setting,value
"CC12CC3CC(C)(C1)CC(N)(C3)C2 [memantine, 1-amino-3,5-dimethyl-adamantane]",vocalization threshold (mechanical hyperalgesia),"[1]; SNL rats, 20 mg/kg/rat/day i.p., four days before and three days after the operation",vocalization threshold very close to that of non-operated rats
same,vocalization threshold (mechanical hyperalgesia),"[1]; SNL rats, 20 mg/kg/rat/day i.p., post-operative injection only (three days after operation)",not enough to restore a normal vocalization threshold
same,vocalization threshold (mechanical hyperalgesia),"[1]; non-operated (Sham) rats, 20 mg/kg/rat/day intraperitoneal, versus vehicle",no influence whatsoever on the behavior of non-operated rats
same,threshold of response (mechanical allodynia),"[2]; SNL rats, 4 days preceding and 3 days following the operation",restores a threshold of response almost identical to that of non-operated rats
same,threshold of response (mechanical allodynia),"[2]; SNL rats, solely post-operative injection",not enough to restore the normal behavior of the rats
same,threshold of response (mechanical allodynia),"[2]; non-operated (Sham) rats, versus vehicle",no influence whatsoever on the behavior of non-operated rats
same,capacity of exploration (time passed in exploring the arms),"[3]; SNL rats, memantine for the 4 days preceding operation and days following",this capacity is restored
same,capacity of exploration (time passed in exploring the arms),"[3]; rats without ligation, injection for one week, compared with normal rats",does not significantly modify the capacity of exploration of the rat
